{
  "source": "ChEMBL document CHEMBL3576794",
  "about": "“Decaprenylphosphoryl-β-d-ribose 2'-Epimerase 1 (DprE1): A Novel Therapeutic Target for the Treatment of Tuberculosis” (2015)",
  "tested_on": "Mycobacterium tuberculosis",
  "experiment": "Antibacterial activity against Mycobacterium tuberculosis H37Rv ATCC 27294 after 5 days by microdilution method",
  "assay_type": "functional",
  "details": "H37Rv ATCC 27294, 120 h",
  "data": [
    {"smiles": "COc1ncnc(Cn2cc(C(=O)NCCF)c3ncc(Br)cc32)c1C", "values": [
      {"measurement": "MIC80", "result": 0.781, "unit": "µM"}
    ]},
    {"smiles": "COc1ncnc(Cn2cc(C(=O)NCCF)c3ncccc32)c1C", "values": [
      {"measurement": "MIC80", "result": 1.56, "unit": "µM"}
    ]},
    {"smiles": "COc1cnc2c(C(=O)NCC(F)F)cn(Cc3ncnc(OC)c3C)c2c1", "values": [
      {"measurement": "MIC80", "result": "< 0.39", "unit": "µM"}
    ]},
    {"smiles": "COc1ncnc(Cn2cc(C(=O)NC[C@@H](C)O)c3ncc(C)cc32)c1C", "values": [
      {"measurement": "MIC80", "result": 6.52, "unit": "µM"}
    ]},
    {"smiles": "COc1ncnc(Cn2cc(C(=O)NCCO)c3ncc(C)cc32)c1C", "note": "[TBA-7371]", "values": [
      {"measurement": "MIC80", "result": 1.56, "unit": "µM"}
    ]},
    {"smiles": "CC(c1c(F)cccc1F)n1cc(C(=O)NCCF)c2ncccc21", "note": "(stereo unspecified)", "values": [
      {"measurement": "MIC80", "result": 12.5, "unit": "µM"}
    ]}
  ]
}
